Like-named read-outs stand apart in the source and are kept apart here. Blank lines part the entries; values can stand above or below the compound they belong to.
Assays:
MDA-MB-435 = test: Screening against cancer cell lines: MDA-MB-435 (Breast); assay type: cell-based
Source text: (§1) Screening of Benzamide Derivatives Against Cancer Cell Lines Tables 1 and 2 tabulate by way of example the results obtained for compounds (4) and (6).
(§2) 7 breast cancer cell lines were screened against both compound (4) and MS275.

NCI-H23 = test: Screening against cancer cell lines: NCI-H23 (Non-Small Cell Lung); assay type: cell-based
Source text: as §1
(§3) 8 non-small cell lung cancer cell lines were screened against both compound (4) and MS275.

SR = test: Screening against cancer cell lines: SR (Leukaemia); assay type: cell-based
Source text: as §1

NCI-H522 = test: Screening against cancer cell lines: NCI-H522 (Non-Small Cell Lung); assay type: cell-based
Source text: as §1, §3

IGROV1 = test: Screening against cancer cell lines: IGROV1 (Ovarian); assay type: cell-based; details: for GI50: IGROV-1
Source text: as §1
(§4) 6 ovarian cancer cell lines were screened against both compound (4) and MS275.

HCC-2998 = test: Screening against cancer cell lines: HCC-2998 (Colon); assay type: cell-based
Source text: as §1
(§5) 6 colon cancer cell lines were screened against both compound (4) and MS275.

LOX IMVI = test: Screening against cancer cell lines: LOX IMVI (Melanoma); assay type: cell-based
Source text: as §1
(§6) 7 melanoma cancer cell lines were screened against both compound (4) and MS275.

NCI/ADR-RES = test: Screening against cancer cell lines: NCI/ADR-RES (Breast); assay type: cell-based
Source text: as §1, §2

cancer cell lines = test: Screening of benzamide derivatives against cancer cell lines (summary); assay type: cell-based; details: summary of Tables 1 and 2
Source text: as §1

ACHN = test: Screening against cancer cell lines: ACHN (Renal); assay type: cell-based; details: Homo sapiens, renal cancer, comparison versus MS275, read-out: potency (quantity not named; values match GI50 of Table 1)
Source text: as §1
(§7) 7 renal cancer cell lines were screened against both compound (4) and MS275.

KM-12 = test: Comparison test versus MS275: KM-12 (colon cancer); assay type: cell-based; details: Homo sapiens, KM12, read-out: potency (quantity not named; values match GI50 of Table 1)
Source text: as §5

HCT-15 = test: Screening against cancer cell lines: HCT-15 (Colon); assay type: cell-based; details: Homo sapiens; HCT-15, colon cancer; comparison versus MS275; read-out: potency (quantity not named; values match GI50 of Table 1)
Source text: as §1, §5

MDA-MB-231/ATCC = test: Screening against cancer cell lines: MDA-MB-231/ATCC (Breast); assay type: cell-based; details: Homo sapiens, breast cancer, comparison versus MS275, read-out: potency (quantity not named; values match GI50 of Table 1)
Source text: as §1, §2

786-0 = test: Comparison test versus MS275: 786-0 (renal cancer); assay type: cell-based; details: Homo sapiens, read-out: potency (quantity not named; values match GI50 of Table 1)
Source text: as §7

SK-MEL-28 = test: Screening against cancer cell lines: SK-MEL-28 (Melanoma); assay type: cell-based; details: Homo sapiens; SK-MEL-28, melanoma; comparison versus MS275; read-out: potency (quantity not named; values match GI50 of Table 1)
Source text: as §1, §6

OVCAR-4 = test: Comparison test versus MS275: OVCAR-4 (ovarian cancer); assay type: cell-based; details: Homo sapiens, read-out: potency (quantity not named; values match GI50 of Table 1)
Source text: as §4

RXF 393 = test: Screening against cancer cell lines: RXF 393 (Renal); assay type: cell-based; details: Homo sapiens; RXF 393, renal cancer; comparison versus MS275; read-out: potency (quantity not named; values match GI50 of Table 1)
Source text: as §1, §7

SN12C = test: Screening against cancer cell lines: SN12C (Renal); assay type: cell-based; details: Homo sapiens, renal cancer, comparison versus MS275, read-out: potency (quantity not named; values match GI50 of Table 1)
Source text: as §1, §7

UACC-257 = test: Screening against cancer cell lines: UACC-257 (Melanoma); assay type: cell-based; details: Homo sapiens; UACC-257, melanoma; comparison versus MS275; read-out: potency (quantity not named; values match GI50 of Table 1)
Source text: as §1, §6

SK-OV-3 = test: Comparison test versus MS275: SK-OV-3 (ovarian cancer); assay type: cell-based; details: Homo sapiens, read-out: potency (quantity not named; values match GI50 of Table 1)
Source text: as §4

tumours = details: mice; cited from earlier work
rat fibroblasts = details: cited from earlier work

SMILES: C=C(CN(C)Cc1ccccc1)c1ccc(C(=O)Nc2ccccc2N)cc1 [(2), N-(2-amino-phenyl)-4-(1-{[benzyl(methyl)amino]methyl}vinyl)benzamide]
melting point: 110 to 111 °C

SMILES: C=C(CN1CCc2c([nH]c3ccccc23)C1)c1ccc(C(=O)Nc2ccccc2N)cc1 [(6), N-(2-aminophenyl)-4-[1-(1,3,4,9-tetrahydro-2H-β-carbolin-2-ylmethyl)vinyl]benzamide]
GI50 (MDA-MB-435; Homo sapiens, MDA-MB-435): 948 nM | CC50 (MDA-MB-435; Homo sapiens, MDA-MB-435, read-out: LC50): 5600 nM | TGI (MDA-MB-435; MDA-MB-435, Breast, Table 2): 2200 nM | GI50 (NCI-H23; Homo sapiens, NCI-H23): 1040 nM | CC50 (NCI-H23; Homo sapiens, NCI-H23, read-out: LC50): 13400 nM | TGI (NCI-H23; NCI-H23, Non-Small Cell Lung, Table 2): 3200 nM | GI50 (SR; Homo sapiens): 622 nM | CC50 (SR; Homo sapiens, read-out: LC50): > 50000 nM | TGI (SR; Leukaemia, Table 2): — (‘—’ indicates a concentration exceeding 50 μM.) | GI50 (NCI-H522; Homo sapiens, NCI-H522): 150 nM | CC50 (NCI-H522; Homo sapiens, NCI-H522, read-out: LC50): > 50000 nM | TGI (NCI-H522; NCI-H522, Non-Small Cell Lung, Table 2): 3000 nM | GI50 (IGROV1; Homo sapiens): 32 nM | CC50 (IGROV1; Homo sapiens, IGROV-1, read-out: LC50): > 50000 nM | TGI (IGROV1; IGROV1, Ovarian, Table 2): 8500 nM | TGI (HCC-2998; HCC-2998, Colon, Table 2): 1900 nM | GI50 (HCC-2998; Homo sapiens, HCC 2998): 731 nM | CC50 (HCC-2998; Homo sapiens, HCC 2998, read-out: LC50): 5000 nM | GI50 (LOX IMVI; Homo sapiens): 763 nM | CC50 (LOX IMVI; Homo sapiens, read-out: LC50): > 50000 nM | TGI (LOX IMVI; Melanoma, Table 2): 2400 nM | TGI (NCI/ADR-RES; Breast, Table 2): 3900 nM | GI50 (NCI/ADR-RES; Homo sapiens): 973 nM | CC50 (NCI/ADR-RES; Homo sapiens, read-out: LC50): 18300 nM | activity against cancer cell lines (in words) (cancer cell lines): nanomolar activity

SMILES: C=C(CN1CCN(c2ccccc2OC)CC1)c1ccc(C(=O)Nc2ccccc2N)cc1 [(9), N-(2-aminophenyl)-4-{1-[4-(2-methoxy-phenyl)-piperazin-1-ylmethyl]vinyl}-benzamide]
melting point: 115 to 116 °C

SMILES: CC(C)=C(CN1CCc2ccccc2C1)c1ccc(C(=O)Nc2ccccc2N)cc1 [(14), N-(2-Amino-phenyl)-4-[1-(3,4-dihydro-1H-isoquinolin-2-ylmethyl)-2-methyl-propenyl]-benzamide]
melting point: 120 °C

SMILES: CC(/C=C/C(=O)NO)=C\[C@@H](C)C(=O)c1ccc(N(C)C)cc1 [Trichostatin A]
formation of tumours (tumours): prevent the formation of tumours in mice | effect on the cell cycle (rat fibroblasts): arrest of rat fibroblasts at the G1 and G2 phases of the cell cycle

Further lines, results first:

melting point: 163 to 164 °C
SMILES: C=C(CN1CCOCC1)c1ccc(C(=O)Nc2ccccc2N)cc1 [(1), N-(2-Amino-phenyl)-4-(1-morpholin-4-ylmethyl-vinyl)-benzamide]

melting point: 89 to 91 °C
SMILES: C=C(CNCc1ccccc1)c1ccc(C(=O)Nc2ccccc2N)cc1 [(7), N-(2-aminophenyl)-4-{1-[(benzylamino)methyl]vinyl}benzamide]

melting point: 129 °C
SMILES: C=C(CN1CCOCC1)c1ccc(CC(=O)Nc2ccccc2N)cc1 [(11), N-(2-Amino-phenyl)-2-[4-(1-morpholin-4-ylmethyl-vinyl)-phenyl]-acetamide]

melting point: 79 to 81 °C
SMILES: C=C(CN1CCOCC1)c1ccc(CCCC(=O)Nc2ccccc2N)cc1 [(13), N-(2-Amino-phenyl)-4-[4-(1-morpholin-4-ylmethyl-vinyl)-phenyl]-butanamide]

GI50 (ACHN): 2000 nM | GI50 (MDA-MB-435; Homo sapiens, MDA-MB-435, breast cancer, comparison versus MS275, read-out: potency (quantity not named; values match GI50 of Table 1)): 10000 nM | GI50 (KM-12): 25000 nM | GI50 (HCT-15): 3980 nM | GI50 (NCI-H23; Homo sapiens, NCI-H23, non-small cell lung cancer, comparison versus MS275, read-out: potency (quantity not named; values match GI50 of Table 1)): 1030 nM | GI50 (MDA-MB-231/ATCC): 2000 nM | GI50 (NCI-H522; Homo sapiens, NCI-H522, non-small cell lung cancer, comparison versus MS275, read-out: potency (quantity not named; values match GI50 of Table 1)): 1000 nM | GI50 (IGROV1; Homo sapiens, IGROV1, ovarian cancer, comparison versus MS275, read-out: potency (quantity not named; values match GI50 of Table 1)): 2510 nM | GI50 (HCC-2998; Homo sapiens, HCC-2998, colon cancer, comparison versus MS275, read-out: potency (quantity not named; values match GI50 of Table 1)): 1260 nM | GI50 (LOX IMVI; Homo sapiens, melanoma, comparison versus MS275, read-out: potency (quantity not named; values match GI50 of Table 1)): 790 nM | GI50 (786-0): 3160 nM | GI50 (SK-MEL-28): 2000 nM | GI50 (NCI/ADR-RES; Homo sapiens, breast cancer, comparison versus MS275, read-out: potency (quantity not named; values match GI50 of Table 1)): 1260 nM | GI50 (OVCAR-4): 20000 nM | GI50 (RXF 393): 2000 nM | GI50 (SN12C): 5010 nM | GI50 (UACC-257): 1540 nM | GI50 (SK-OV-3): 5010 nM
SMILES: Nc1ccccc1NC(=O)c1ccc(CNC(=O)OCc2cccnc2)cc1 [MS275, reference compound]
